In patent EP0620225B1, “Cephalosporin derivatives” (Basilea Pharmaceutica AG, priority 1993, dated 1994):
≈ marks a conversion by molar mass, not a printed value. Like-named read-outs stand apart in the source and are kept apart here. Blank lines part the entries; values can stand above or below the compound they belong to.

Experiments:
[1] = test system: S.viridans group; assay: In vitro activity against selected species (MIC50, MIC90, range); type: cell-based; settings: Streptococcus viridans
[2] = test system: S.aureus MSSA; assay: as above; type: cell-based; settings: Staphylococcus aureus, medium MHB (Mueller Hinton Broth)
[3] = test system: E.faecium; assay: In vitro activity against selected species (MIC50, range); type: cell-based; settings: Enterococcus faecium, medium MHA
Description: (§1) In vitro activity was determined by minimum inhibitory concentration in a microorganism spectum by the agar dilution method in Mueller Hinton agar.

[4] = test system: E.faecalis; assay: In vitro activity against selected species (MIC50, MIC90, range); type: cell-based; settings: Enterococcus faecalis, medium IsoB
[5] = test system: Escherichia coli 25922; assay: Efficacy against systemic infections (septicemia) in mice; type: in vivo; settings: 96 h, survival day 4
Description: (§2) Septicemia was induced in outbred Swiss albino mice (Jbm MoRo [specific pathogen free]; weight 16 to 20 g, Biomedical Research Laboratories, Füllinsdorf, Switzerland). Mice were infected by intraperitoneal injection of diluted overnight cultures of the test organisms. Bacterial challenge doses were 4-10 times the number of organisms required to kill 50% of untreated animals within 48 h. The test compounds were administered p.o. or s.c. 1 and 3 h after the bacterial challenge. To treat the infection with Pseudomonas aeruginosa BA an additional dose was given 5 h after challenge. Control and treatment groups at each dose were composed of five mice each. The 50% effective dose (ED50, in milligrams per kilogram) was calculated by probit analysis as described by Finney (Finney, D.J. 1978, Statistical method in biological assay, 3rd ed. Charles Griffin & Co., Ltd., London), from the survival rates on day 4 after infection.

[6] = test system: S.aureus Smith; assay: as above; type: in vivo; settings: Staphylococcus aureus, 96 h, sc 1 and 3 h after challenge, survival day 4
Description: as §2

[7] = test system: S.pneumoniae PEN-R; assay: In vitro activity against selected species (MIC50, MIC90, range); type: cell-based; settings: Streptococcus pneumoniae; for MIC: MIC range
[8] = test system: M.catarrhalis; assay: as above; type: cell-based; settings: Moraxella catarrhalis, medium IsoB
[9] = test system: S.aureus MRSA; assay: as above; type: cell-based; settings: Staphylococcus aureus, medium MHA (Mueller Hinton Agar) +NaCl
Description: as §1

[10] = test system: E.faecalis; assay: as above; type: cell-based; settings: Enterococcus faecalis, medium MHA
Description: as §1

[11] = test system: E.coli 25922; assay: Antibacterial spectrum (MIC), agar dilution; type: cell-based
Description: as §1

[12] = test system: P.aeruginosa 27853; assay: Antibacterial spectrum (MIC), agar dilution; type: cell-based
Description: as §1

[13] = test system: X.maltophilia 1AC739; assay: Antibacterial spectrum (MIC), agar dilution; type: cell-based
Description: as §1

[14] = test system: S.viridans group 016; assay: Antibacterial spectrum (MIC), agar dilution; type: cell-based
Description: as §1

[15] = test system: C.freundii 902; assay: Antibacterial spectrum (MIC), agar dilution; type: cell-based
Description: as §1

[16] = test system: P.vulgaris 1028; assay: Antibacterial spectrum (MIC), agar dilution; type: cell-based
Description: as §1

[17] = test system: S.agalactiae QK44; assay: Antibacterial spectrum (MIC), agar dilution; type: cell-based
Description: as §1

[18] = test system: S.marcescens 69438; assay: Antibacterial spectrum (MIC), agar dilution; type: cell-based
Description: as §1

[19] = test system: E.cloacae 908R; assay: Antibacterial spectrum (MIC), agar dilution; type: cell-based
Description: as §1

[20] = test system: S.pneumoniae Q19; assay: Antibacterial spectrum (MIC), agar dilution; type: cell-based
Description: as §1

[21] = test system: S.aureus 734 MRSA; assay: Antibacterial spectrum (MIC), agar dilution; type: cell-based
Description: as §1

[22] = test system: P.mirabilis 2117; assay: Antibacterial spectrum (MIC), agar dilution; type: cell-based
Description: as §1

[23] = test system: E.cloacae 908SSi; assay: Antibacterial spectrum (MIC), agar dilution; type: cell-based
Description: as §1

[24] = test system: E.faecalis 6; assay: Antibacterial spectrum (MIC), agar dilution; type: cell-based
Description: as §1

[25] = test system: Acinetobacter sp.51-156; assay: Antibacterial spectrum (MIC), agar dilution; type: cell-based
Description: as §1

[26] = test system: C.freundii 43; assay: Antibacterial spectrum (MIC), agar dilution; type: cell-based
Description: as §1

[27] = test system: M.morganii 6H-137; assay: Antibacterial spectrum (MIC), agar dilution; type: cell-based
Description: as §1

[28] = test system: N.meningitidis 69480; assay: Antibacterial spectrum (MIC), agar dilution; type: cell-based
Description: as §1

[29] = test system: K.pneumoniae 418; assay: Antibacterial spectrum (MIC), agar dilution; type: cell-based
Description: as §1

[30] = test system: S.pyogenes B15; assay: Antibacterial spectrum (MIC), agar dilution; type: cell-based
Description: as §1

[31] = test system: L.monocytogenes BK23; assay: Antibacterial spectrum (MIC), agar dilution; type: cell-based
Description: as §1

[32] = test system: S.aureus 6538; assay: Antibacterial spectrum (MIC), agar dilution; type: cell-based
Description: as §1

[33] = test system: H.influenzae 1; assay: Antibacterial spectrum (MIC), agar dilution; type: cell-based
Description: as §1

[34] = test system: M.catarrhalis RA21; assay: Antibacterial spectrum (MIC), agar dilution; type: cell-based
Description: as §1

[35] = test system: C.difficile ZH1; assay: Antibacterial spectrum (MIC), agar dilution; type: cell-based
Description: as §1

[36] = test system: B.fragilis ATCC25285; assay: Antibacterial spectrum (MIC), agar dilution; type: cell-based
Description: as §1

[37] = test system: P.asaccharolyticus 29743; assay: Antibacterial spectrum (MIC), agar dilution; type: cell-based
Description: as §1

[38] = medium IsoB (Isosensitest Broth)
[39] = Citrobacter freundii, read-out: MIC
[40] = Enterobacter cloacae, read-out: MIC
[41] = Staphylococcus aureus, read-out: MIC

MIC50 [1]: 0.5 µg/mL (≈ 0.876 µM) | MIC90 [1]: 2 µg/mL (≈ 3.51 µM) | MIC ([1]; MIC range): 0.12 to 4 µg/mL (≈ 0.21 to 7.01 µM) | MIC ([2]; MIC range): 0.5 to 1 µg/mL (≈ 0.876 to 1.75 µM) | MIC50 [2]: 0.5 µg/mL (≈ 0.876 µM) | MIC90 [2]: 0.5 µg/mL (≈ 0.876 µM) | MIC ([3]; MIC range): 0.1 to 16 µg/mL (≈ 0.175 to 28 µM) | MIC50 [3]: 2 µg/mL (≈ 3.51 µM) | MIC ([4]; MIC range): 0.25 to 1 µg/mL (≈ 0.438 to 1.75 µM) | MIC50 [4]: 0.5 µg/mL (≈ 0.876 µM) | MIC90 [4]: 1 µg/mL (≈ 1.75 µM) | MIC [7, 38]: 0.12 to 0.25 µg/mL (≈ 0.21 to 0.438 µM) | MIC ([7]; medium IsoB + 20% serum): 0.12 to 0.5 µg/mL | MIC50 [7, 38]: ≤ 0.12 µg/mL | MIC90 [7, 38]: ≤ 0.12 µg/mL | MIC50 ([7]; medium IsoB + 20% serum): 0.25 µg/mL | MIC ([8]; MIC range): 1 to 64 µg/mL (≈ 1.75 to 112 µM) | MIC50 [8]: 8 µg/mL (≈ 14 µM) | MIC90 [8]: 16 µg/mL (≈ 28 µM) | MIC ([9]; MIC range): 16 to 32 µg/mL (≈ 28 to 56.1 µM) | MIC50 [9]: 16 µg/mL (≈ 28 µM) | MIC90 [9]: 32 µg/mL (≈ 56.1 µM) | MIC ([10]; MIC range): 0.5 to 1 µg/mL (≈ 0.876 to 1.75 µM) | MIC50 [10]: ≤ 0.5 µg/mL | MIC90 [10]: 1 µg/mL (≈ 1.75 µM) | MIC ([11]; Escherichia coli, read-out: MIC): 0.12 µg/mL (≈ 0.21 µM) | MIC ([12]; Pseudomonas aeruginosa, read-out: MIC): > 32 µg/mL | MIC ([13]; Stenotrophomonas maltophilia, read-out: MIC): > 32 µg/mL | MIC ([14]; Streptococcus viridans, read-out: MIC): 0.5 µg/mL (≈ 0.876 µM) | MIC [15, 39]: 0.25 µg/mL (≈ 0.438 µM) | MIC ([16]; Proteus vulgaris, read-out: MIC): 2 µg/mL (≈ 3.51 µM) | MIC ([17]; Streptococcus agalactiae, read-out: MIC): 0.25 µg/mL (≈ 0.438 µM) | MIC ([18]; Serratia marcescens, read-out: MIC): 1 µg/mL (≈ 1.75 µM) | MIC [19, 40]: 32 µg/mL (≈ 56.1 µM) | MIC ([20]; Streptococcus pneumoniae, read-out: MIC): ≤ 0.06 µg/mL | MIC [21, 41]: 8 µg/mL (≈ 14 µM) | MIC ([22]; Proteus mirabilis, read-out: MIC): 0.12 µg/mL (≈ 0.21 µM) | MIC [23, 40]: 0.5 µg/mL (≈ 0.876 µM) | MIC ([24]; Enterococcus faecalis, read-out: MIC): 0.25 µg/mL (≈ 0.438 µM) | MIC ([25]; SP.51156, read-out: MIC): 32 µg/mL (≈ 56.1 µM) | MIC [26, 39]: 8 µg/mL (≈ 14 µM) | MIC ([27]; Morganella morganii, 6H137, read-out: MIC): ≤ 0.06 µg/mL | MIC ([28]; Neisseria meningitidis, read-out: MIC): ≤ 0.06 µg/mL | MIC ([29]; Klebsiella pneumoniae, read-out: MIC): 0.12 µg/mL (≈ 0.21 µM) | MIC ([30]; Streptococcus pyogenes, read-out: MIC): ≤ 0.06 µg/mL | MIC ([31]; Listeria monocytogenes, read-out: MIC): 2 µg/mL (≈ 3.51 µM) | MIC [32, 41]: 0.5 µg/mL (≈ 0.876 µM) | MIC ([33]; Haemophilus influenzae, read-out: MIC): 0.25 µg/mL (≈ 0.438 µM) | MIC ([34]; Moraxella catarrhalis, read-out: MIC): > 16 µg/mL
SMILES: COc1ccc(N2CC/C(=C\C3=C(C(=O)O)N4C(=O)[C@@H](NC(=O)/C(=N\O)c5csc(N)n5)[C@H]4SC3)C2=O)cc1 [I]
ED50 ([5]; Escherichia coli 25922, po (orally) 1 and 3 h after challenge): 4.5 mg/kg | ED50 ([5]; Escherichia coli, E.coli 25922, sc 1 and 3 h after challenge): < 0.3 mg/kg | ED50 [6]: < 1 mg/kg

MIC [11]: ≤0.12 µg/mL | MIC [12]: 16 µg/mL (≈ 29.5 µM) | MIC [13]: >32 µg/mL | MIC [35]: 16 µg/mL (≈ 29.5 µM) | MIC [14]: 1 µg/mL (≈ 1.85 µM) | MIC [15]: ≤0.12 µg/mL | MIC [16]: 4 µg/mL (≈ 7.39 µM) | MIC [17]: 0.5 µg/mL (≈ 0.923 µM) | MIC [18]: 0.5 µg/mL (≈ 0.923 µM) | MIC [19]: 4 µg/mL (≈ 7.39 µM) | MIC [20]: 0.12 µg/mL (≈ 0.222 µM) | MIC [21]: 8 µg/mL (≈ 14.8 µM) | MIC [22]: ≤0.12 µg/mL | MIC [23]: ≤0.12 µg/mL | MIC [24]: 1 µg/mL (≈ 1.85 µM) | MIC [25]: 32 µg/mL (≈ 59.1 µM) | MIC [26]: 2 µg/mL (≈ 3.69 µM) | MIC [27]: ≤0.12 µg/mL | MIC [36]: 4 µg/mL (≈ 7.39 µM) | MIC [28]: ≤0.06 µg/mL | MIC [29]: ≤0.12 µg/mL | MIC [30]: ≤0.06 µg/mL | MIC [31]: 8 µg/mL (≈ 14.8 µM) | MIC [37]: ≤0.25 µg/mL | MIC [32]: 1 µg/mL (≈ 1.85 µM) | MIC [33]: 0.25 µg/mL (≈ 0.462 µM) | MIC [34]: >16 µg/mL
SMILES: Nc1nc(/C(=N/O)C(=O)N[C@@H]2C(=O)N3C(C(=O)O)=C(/C=C4\CCN(c5cccnc5)C4=O)CS[C@H]23)cs1 [K, [6R-[3(E),6α,7β(Z)]]-7-[[(2-Amino-4-thiazolyl)(hydroxyimino)acetyl]-amino]-8-oxo-3-[[2-oxo-1-(3-pyridinyl)-3-pyrrolidinylidene]methyl]-5-thia-1-azabicyclo[4.2.0]oct-2-ene-2-carboxylic acid]
